Test results taken from US6962918B2, “Hexahydropyrazino[1'2';1,6]pyrido[3,4-b]indole-1,4-diones for the treatment of cardiovascular disorders and erectile dysfunction” (Lilly Icos LLC., priority 2000, dated 2005).

Key:
recombinant human PDE5 = recombinant human PDE5 (Homo sapiens, UniProt O76074); experiment: Inhibitory effect on cGMP-PDE (PDE5 IC50), one-step assay adapted from Wells et al.; assay type: biochemical; settings: 0.15 μM 8-[H3]-cGMP, 30 minutes incubation, 2% DMSO
Protocol: The compounds of structural formula (I) were tested for an ability to inhibit PDE5. The ability of a compound to inhibit PDE5 activity is related to the IC50 value for the compound, i.e., the concentration of inhibitor required for 50% inhibition of enzyme activity. The IC50 value for compounds of structural formula (I) were determined using recombinant human PDE5.
(§1) cGMP-PDE activity of compounds of the present invention was measured using a one-step assay adapted from Wells et al., Biochim. Biophys. Acta, 384, 430 (1975). The reaction medium contained 50 mM Tris-HCl, pH 7.5, 5 mM magnesium acetate, 250 μg/ml 5′-Nucleotidase,1 mM ECTA, and 0.15 μM 8-[H^3]-cGMP. Unless otherwise indicated, the enzyme used was a human recombinant PDE5 (ICOS Corp., Bothell, Wash.).
(§2) Compounds of the invention were dissolved in DMSO finally present at 2% in the assay.

PDE5 (bovine aorta) = biological target: T1, PDE5 (bovine aorta) (Bos taurus, UniProt Q28156); experiment: Inhibitory effect on cGMP-PDE (PDE5 IC50), bovine aorta enzyme; assay type: biochemical; settings: enzyme marked (bovine aorta) in the cell
T1 construct: from tissue; host or cells: bovine aorta
Protocol: as §1, §2

| IC50 (recombinant human PDE5) [nM] | melting point [°C] | IC50 (PDE5 (bovine aorta)) [nM] | SMILES |
| --- | --- | --- | --- |
| 40 |  |  | Cc1c([C@@H]2c3[nH]c4ccccc4c3C[C@H]3C(=O)N(C)CC(=O)N23)sc2ccccc12 [Example 6] |
| 25 | 230 to 234 |  | Cc1c([C@H]2c3[nH]c4ccccc4c3C[C@H]3C(=O)N(C)CC(=O)N23)sc2ccccc12 [Example 5, (6R,12aS)-2-methyl-6-(e-methyl-benzo[b]thiophen-2-yl)-2,3,6,7,12,12a-hexahydro-pyrazino[1′,2′:1,6]pyrido[3,4-b]indole-1,4-dione] |
| 1 |  |  | Cc1c([C@@H]2c3[nH]c4ccccc4c3C[C@@H]3C(=O)N(C)CC(=O)N23)sc2ccccc12 [Example 8] |
| 195 | 180 to 185 |  | COCOC[C@@H]1c2[nH]c3ccccc3c2C[C@@H]2C(=O)N(C)CC(=O)N21 [Example 18, (6S,12aR)-Methoxymethoxymethyl-2-methyl-2,3,6,7,12,12a-hexahydropyrazino-[1′,2′:1,6]pyrido[3,4-b]indole-1,4-dione] |
| 16 | 265 to 268 |  | CN1CC(=O)N2[C@H](c3cc4ccccc4o3)c3[nH]c4ccccc4c3C[C@@H]2C1=O [Example 3, (6S,12aR)-6-benzofuran-2-yl-2-methyl-2,3,6,7,12,12a-hexahydropyrazino[1′,2′:1,6]-pyrido[3,4-b]indole-1,4-dione] |
| 560 |  |  | CN1CC(=O)N2[C@@H](C3CC=CCC3)c3[nH]c4ccccc4c3C[C@H]2C1=O (stereo partly drawn) [Example 21, (+−, cis)-6-Cyclohex-3-enyl-2-methyl-2,3,6,7,12,12a-hexahydropyrazino[1′2′:1,6]pyrido[3,4-b]indole-1,4-dione] |
| 8730 | 195 to 198 |  | CN1CC(=O)N2[C@H](c3cc4ccccc4o3)c3[nH]c4ccccc4c3C[C@H]2C1=O [Example 2] |
| 1500 | 181 to 187 |  | CN1CC(=O)N2[C@H](Cc3c([nH]c4ccccc34)[C@H]2COCc2ccccc2)C1=O [Example 16, (6S,12aR)-6-Benzyloxymethyl-2-methyl-2,3,6,7,12,12a-hexahydropyrazino[1′2′:1,6]pyrido-[3,4-b]indole-1,4-dione] |
| 1570 |  |  | Cc1c([C@H]2c3[nH]c4ccccc4c3C[C@@H]3C(=O)N(C)CC(=O)N23)sc2ccccc12 [Example 7, (6R,12aR)-2-methyl-6-(3-methylbenzo[b]thiophen-2-yl)-2,3,6,7,12,12a-hexahydropyrazino[1′2′:1,6]-pyrido[3,4-b]indole-1,4-dione] |
| 130 |  |  | CN1CC(=O)N2[C@@H](c3cc4ccccc4o3)c3[nH]c4ccccc4c3C[C@H]2C1=O [Example 1, (6R,12aS)-6-benzofuran-2-yl-2-methyl-2,3,6,7,12,12a-hexahydro-pyrazino [1′,2′:1,6]pyrido[3,4-b]indole-1,4-dione] |
| 12 |  |  | CN1CC(=O)N2[C@H](c3cc4ccoc4s3)c3[nH]c4ccccc4c3C[C@@H]2C1=O [Example 9] |
| 4800 |  |  | CC(C)C[C@H]1c2[nH]c3ccccc3c2C[C@H]2C(=O)N(C)CC(=O)N21 (racemic) [Example 19, (+−,cis)-6-Isobutyl-2-methyl-2,3,6,7,12,12a-hexa-hydropyrazino[1′2′:1,6]pyrido[3,4-b]indole-1,4-dione] |
| 880 |  |  | CN1CC(=O)N2[C@@H](c3cc4ccccc4o3)c3[nH]c4ccccc4c3C[C@@H]2C1=O [Example 4] |
| 23000 |  |  | CN1CC(=O)N2[C@H](Cc3c([nH]c4ccccc34)[C@H]2CO)C1=O [Example 17, (6S,12aR)-6-Hydroxymethyl-2-methyl-2,3,6,7,12,12a-hexahydropyrazino-[1′2′:1,6]pyrido[3,4-b]indole-1,4-dione] |
| 333 |  |  | COC[C@@H]1c2[nH]c3ccccc3c2C[C@@H]2C(=O)N(C)CC(=O)N21 [Example 15] |
|  |  | 230 | CN1CC(=O)N2[C@@H](C3CCCCC3)c3[nH]c4ccccc4c3C[C@H]2C1=O (racemic) [Example 20, (+−, cis)-6-Cyclohexyl-2-methyl-2,3,6,7,12,12a-hexa-hydropyrazino[1′2′:1,6]pyrido[3,4-b]indole,1,4-dione] |
